Data published in patent US7863444B2, “4-aminopyrrolopyrimidines as kinase inhibitors” (Abbott Laboratories, priority 1997, dated 2011).

Row | SMILES | melting point [°C]
1 | CC(C)n1cc(-c2ccc(C=O)cc2)c2c(N)ncnc21 [Example 160, 4-(4-amino-7-isopropyl-7H-pyrrolo[2,3-d]pyrimidin-5-yl)benzaldehyde] | 198 to 200
2 | CC(C)n1cc(-c2ccc(Oc3ccccc3)c(CO)c2)c2c(N)ncnc21 [Example 163, 5-[4-amino-7-isopropyl-7H-pyrrolo[2,3-d]pyrimidin-5-yl]-2-phenoxybenzylalcohol] | 92 to 94
3 | NCc1c(-c2ccc(Oc3ccccc3)cc2)c2c(N)ncnc2n1C1CCCC1 [Example 165, 6-aminomethyl-7-cyclopentyl-5-(4-phenoxyphenyl)-7H-pyrrolo[2,3-d]pyrimidin-4-ylamine] | 196.5 to 197.5
4 | CC(C)(C)n1cc(-c2ccc(N(C=O)c3ccccc3)cc2)c2cncnc21 [Example 166, 7-tertbutyl-5-(N-formyl-4-phenylaminophenyl)pyrrolo[2,3-d]pyrimidine] | 163 to 164
5 | Nc1ncnc2c1c(-c1ccc(Oc3ccc(OCCO)cc3)cc1)cn2CCO [Example 169, 7-(2-Hydroxyethyl)-5-{4-[4-(2-hydroxyethoxy)phenoxy]phenyl}pyrrolo[2,3-d]-pyrimidin-4-ylamine] | 166 to 166.5
6 | CC(C)S(=O)(=O)n1cc(-c2ccc(Oc3ccccc3)cc2)c2c(N)ncnc21 [Example 173, 7-isopropylsulphonyl-5-(4-phenoxyphenyl)-7H-pyrrolo[2,3-d]pyrimidin-4-ylamine] | 162 to 162.5
7 | Nc1ncnc2c1c(-c1ccc(Oc3ccccc3)cc1)cn2C1CC2CC(O)CC2C1 (centres unmarked) [Example 174, 7-[4-amino-5-(4-phenoxyphenyl)-7H-pyrrolo[2,3-d]pyrimidin-7-yl]bicyclo[3.3.0]octan-3-ol] | 193 to 194
8 | Nc1ncnc2c1c(-c1ccc(Oc3ccccc3)cc1)cn2C1CCC(O)CC1 (centres unmarked) [Example 175, 4-[4-amino-5-(4-phenoxyphenyl)-7H-pyrrolo[2,3-d]pyrimidin-7-yl]cyclohexanol] | 199 to 200
